4 compounds from patent US8329926B2, “Antiviral compounds” (Gilead Sciences, Inc., priority 2004, dated 2012) can be followed below.

Structures can show the parent of a compound that is named as a salt. Where two headings read alike, the source gives them in different places.

Data set [1] deals with mtDNA. Description: mtDNA IC50. Type of data set: cell-based.
Data set [2] concerns MT-2.
For data set [3], the system named is HIV-1. In words: Anti-HIV-1 activity (EC50). Type of data set: cell-based.
Data set [4] concerns M184V. Particulars: FIG. 1.
Data set [5] deals with 6TAM. Particulars: FIG. 1.
The test system of data set [6] is K65R. As to conditions: FIG. 1.

Regarding `Nc1ncnc2c1ncn2[C@@H]1O[C@H](OCP(=O)(O)O)C=C1F` [2′F-d4AP, (2′R, 5′R)-9-(3-fluoro-2,5-dihydro-5-phosphonomethoxy-2-furanyl)adenine di sodium salt], the IC50 in data set [1] (FIG. 2, read-out: IC50 [uM] mtDNA) lay within 100 to 1000 µM. Further, in data set [2], the CC50 is below 1000 µM. In data set [3] (read-out: EC50 [uM] HIV-1), the EC50 was 1 to 100 µM.

As to `Nc1nc(N)c2ncn([C@@H]3O[C@H](OCP(=O)(O)O)C=C3F)c2n1` [2′F-d4DAPP], the EC50 in data set [3] (read-out: EC50 [uM] HIV-1) fell in the range of 100 to 1000 µM.

In the case of `C[C@H](Cn1cnc2c(N)ncnc21)OCP(=O)(O)O` [Tenofovir], in data set [1] (FIG. 1, read-out: mtDNA 1050), the IC50 was in the range of 100 to 1000 µM. The CC50 in data set [2] was below 1000 µM. In data set [4], the “Resistance - fold EC50 M184V” value was “++++ (++++=0.01-1)”. Moreover, in data set [5], the “Resistance - fold EC50 6TAM” value is on record as “+++ (+++=1-100)”. The “Resistance - fold EC50 K65R” value in data set [6] is reported as “+++ (+++=1-100)”. Moreover, the EC50 in data set [3] (FIG. 1, read-out: EC50 [uM] HIV-1) lay in the range of 1 to 100 µM.

As to `CCCOC(=O)[C@H](C)NP(=O)(CO[C@@H]1C=C(F)[C@H](n2cnc3c(N)ncnc32)O1)N[C@@H](C)C(=O)OCCC` [drawing 144 (Ala) n-Propyl], the EC50 in data set [3] (Human immunodeficiency virus 1, FIG. 5, prodrugs by R1 (aa) and R2 (ester), read-out: EC50) lay in the range of 0.1 to 1 µM.

By EC50 is commonly meant the concentration giving half of the maximal effect.
